# Test results from paper PMC9328650 (British Journal of Pharmacology, 2021).
# Legend:
# [1] = target: PDI (Homo sapiens, UniProt P07237); test: Insulin turbidity assay, PDI; type: biochemical; conditions: for Effect on enzyme activity of PDI: 300 μM, highest concentration tested
# Description: (§1) Initial compound library screening was performed in an insulin turbidity assay adapted for high‐throughput screening (Holmgren, [1979]; Smith et al., [2004]). The reduction of the disulphide bond in insulin by a thiol isomerase results in the separation of the A and B chains and precipitation, which is measured by spectrophotometry at a wavelength of 650 nm. Using Corning 3891 well plates (with a final volume of 10 μl), a final concentration of 10 μg·ml^−1 of ERp57, 125‐μM insulin and 2‐mM EDTA in potassium phosphate buffer (100 mM) was added to each experimental well. Bacitracin (3 mM) was added to select wells as a positive control and vehicle plates served as a negative control. Experimental compounds were pin transferred to the wells at a final concentration of 30 μM and plates shaken. After incubation for 10 min, 0.3‐mM DTT was added to propagate enzyme activity. Following reaction for 1 hr at 37°C, plates were read using a PerkinElmer Envision plate reader (PerkinElmer, Waltham, MA). All compounds were tested in duplicate at the ICCB‐Longwood Screening Facility at Harvard Medical School.
# (§2) Lead compounds were diluted in a 6‐point dose curve (concentrations depending on the observed effects in the initial screen) and insulin turbidity was measured kinetically each minute for 75 min using a Spectramax M3 microplate reader (Molecular Devices, Sunnyvale, CA). Specificity assay also utilised the insulin turbidity assay to determine specificity of inhibition; ERp57 was replaced with PDI (10 μg·ml^−1), ERp5 (30 μg·ml^−1), ERp72 (10 μg·ml^−1) or thioredoxin (10 μg·ml^−1), to determine the ability of lead compounds to inhibit these enzymes.
# (§3) A total of 3,641 compounds were screened for inhibitory effects on the redox activity of ERp5, protein disulphide isomerase (PDI), ERp57, ERp72 and thioredoxin (TRX), all assayed at 10 μg·ml^−1 except ERp5 which was assayed at 30 μg·ml^−1. ZFL was selected for further investigation. […] (a) Enzyme assays performed in the absence of enzyme with drug only.
# [2] = target: T1, ERp57 (Homo sapiens, UniProt P30101); test: Insulin turbidity assay, ERp57; type: biochemical; conditions: for Effect on enzyme activity of ERp57: 300 μM, highest concentration tested
# T1 sequence (P30101 25-505): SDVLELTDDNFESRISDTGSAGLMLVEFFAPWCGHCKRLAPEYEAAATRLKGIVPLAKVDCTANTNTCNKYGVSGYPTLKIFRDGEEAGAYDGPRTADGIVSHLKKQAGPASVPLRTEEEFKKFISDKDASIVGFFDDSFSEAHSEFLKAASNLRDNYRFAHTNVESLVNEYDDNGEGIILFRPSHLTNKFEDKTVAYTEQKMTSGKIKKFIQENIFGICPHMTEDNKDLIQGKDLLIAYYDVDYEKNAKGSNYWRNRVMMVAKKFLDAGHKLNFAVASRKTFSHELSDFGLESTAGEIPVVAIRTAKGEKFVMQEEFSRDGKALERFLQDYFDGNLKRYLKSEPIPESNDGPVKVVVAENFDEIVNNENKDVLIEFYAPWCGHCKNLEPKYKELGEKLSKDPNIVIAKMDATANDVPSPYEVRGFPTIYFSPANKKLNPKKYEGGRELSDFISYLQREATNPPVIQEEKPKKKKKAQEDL
# Description: as §1, §2, §3
# [3] = target: T2, thioredoxin (TRX) (Homo sapiens, UniProt P10599); test: Insulin turbidity assay, thioredoxin; type: biochemical; conditions: for Effect on enzyme activity of thioredoxin: 300 μM, highest concentration tested
# T2 sequence (P10599 1-105): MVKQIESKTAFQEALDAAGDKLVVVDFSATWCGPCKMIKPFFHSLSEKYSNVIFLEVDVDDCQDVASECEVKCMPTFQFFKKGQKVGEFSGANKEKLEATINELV
# Description: as §1, §2, §3
# [4] = target: T3, ERp5 (Homo sapiens, UniProt Q15084); test: Insulin turbidity assay, ERp5; type: biochemical; conditions: ERp5 30 μg·ml^−1, 650 nm, 37°C
# T3 sequence (Q15084 20-440): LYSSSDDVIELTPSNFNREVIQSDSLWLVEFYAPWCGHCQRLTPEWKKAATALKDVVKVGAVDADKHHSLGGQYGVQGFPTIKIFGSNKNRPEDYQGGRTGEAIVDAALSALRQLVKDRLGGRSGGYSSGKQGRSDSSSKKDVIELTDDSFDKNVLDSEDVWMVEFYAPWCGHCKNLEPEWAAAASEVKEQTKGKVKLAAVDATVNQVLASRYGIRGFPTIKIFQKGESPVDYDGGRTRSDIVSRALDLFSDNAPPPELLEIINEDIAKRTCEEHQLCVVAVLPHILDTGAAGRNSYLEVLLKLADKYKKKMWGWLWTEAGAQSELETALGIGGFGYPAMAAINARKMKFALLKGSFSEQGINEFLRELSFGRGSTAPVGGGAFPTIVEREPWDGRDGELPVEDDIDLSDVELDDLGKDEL
# Description: as §1
# (§4) Lead compounds were diluted in a 6‐point dose curve (concentrations depending on the observed effects in the initial screen) and insulin turbidity was measured kinetically each minute for 75 min using a Spectramax M3 microplate reader (Molecular Devices, Sunnyvale, CA). […]
# [5] = test system: HEK293T cells; test: Cell migration scratch assay, HEK293T; type: cell-based, human; conditions: 20 μM, 40 hr
# Description: (§5) MDA‐MB‐231 (ATCC Cat# HTB‐26, RRID:CVCL_0062) or HEK293T (ATCC Cat# CRL‐3216, RRID:CVCL_0063) were seeded into wells of a 12‐well plate (fibronectin coated, 10 μg·ml^−1) and grown to confluence in DMEM supplemented with 10% (v/v) FBS and 1% (v/v) penicillin–streptomycin. Following aspiration of media, a vertical scratch was performed to bisect the well and detached cells were removed by PBS washes. […] Images were analysed using Zeiss Axiovision software, and closure areas calculated using Fiji ImageJ. At 37/40 hr post‐scratch, cells were fixed in 4% (v/v) paraformaldehyde for 20 min and permeabilised with 0.2% (v/v) Triton X‐100 for 10 min. Cells were stained with phalloidin‐568 (dilution of 1:250, in PBS) for 1 hr and following washes, counterstained with DAPI (1:1,000) for 20 min. Cells were washed in PBS and mounted using Vectashield H‐1000.
# [6] = test system: thrombus formation; test: Laser injury arterial thrombus formation, cremaster muscle arterioles, intravital microscopy; type: in vivo, mouse; conditions: 20 μM circulating concentration, i.v., male C57BL/6J mice, n = 12 thrombi
# Description: (§6) Male C57BL/6J mice (RRID:IMSR_JAX:000664 bred in house, at age 4–5 weeks with a weight range of 19–25 g) were anaesthetised by intraperitoneal injection of ketamine (125 mg·kg^−1), xylazine (12.5 mg·kg^−1) and atropine (0.25 mg·kg^−1). Platelets were labelled by intravenous infusion of DyLight 649‐conjugated anti‐GPIb platelet labelling antibody (0.2 μg·g^−1 body weight). […] Thrombi were observed using an Olympus BX microscope (Olympus, Essex, UK) and a Hamamatsu (Hamamatsu Photonics, Hertfordshire, UK) CCD camera and data analysed using Slidebook Software version 5.0 (Intelligent Imaging Innovations, Denver, USA) (Falati et al., [2006]; Holbrook et al., [2018]; Holbrook et al., [2012]). Mice were killed using Schedule 1 approved methods at the end of the experiment. […] Time to bleeding cessation was recorded. […] Animal experiments were approved by the University of Reading Local Ethical Review Panel and authorised by the UK Home Office. […]
# (§7) Following laser injury, images were recorded for 5 min. […] Graphs represent mean ± SEM, n = 10 per treatment; data were analysed by Student's t‐test, *P < 0.05
# [7] = test system: MDA-MB-231 cell-surface free thiols; test: Cell-surface free thiol labelling with MPB, MDA-MB-231; type: cell-based, human; conditions: 20 μM, vs vehicle
# Description: (§8) MDA‐MB‐231 or HEK293T cells were cultured and treated as described before. Four hours post‐treatment, cells were washed with PBS, and free thiols labelled by incubation with MPB (100 μM) for 20 min. Free label was removed by multiple PBS washes, and cells were lysed in reducing sample treatment buffer for SDS‐PAGE analysis. Thiol labelling was detected using streptavidin‐HRP conjugate (1:10,000 dilution in 5% [w/v] BSA/TBS‐T), and chemiluminescence captured following the addition of ECL substrate.
# [8] = test system: MDA-MB-231 cells; test: 3-day growth inhibition (proliferation) assay, MDA-MB-231; type: cell-based, human; conditions: 72 hr
# Description: (§9) MDA‐MB‐231 or HEK293T cells were seeded at a density of 2.5 × 10^5 cells per well in a six‐well cell culture plate and grown for 24 hr. […] Following drug treatment, wells were washed and cells manually counted by haemocytometer or automatically using a Coulter counter (Beckman Coulter, CA, USA). Cell growth inhibition was calculated by comparing the counts of drug treated cells with untreated (control) cells as described previously (Kennedy et al., [2007]).
# [9] = test system: HEK293T cell-surface free thiols; test: Cell-surface free thiol labelling with MPB, HEK293T; type: cell-based, human; conditions: 20 μM, vs vehicle
# Description: as §8
# [10] = target: T4, ERp72 (Homo sapiens, UniProt P13667); test: Insulin turbidity assay, ERp72; type: biochemical; conditions: ERp72 10 μg·ml^−1, 650 nm, 37°C
# T4 sequence (P13667 21-645): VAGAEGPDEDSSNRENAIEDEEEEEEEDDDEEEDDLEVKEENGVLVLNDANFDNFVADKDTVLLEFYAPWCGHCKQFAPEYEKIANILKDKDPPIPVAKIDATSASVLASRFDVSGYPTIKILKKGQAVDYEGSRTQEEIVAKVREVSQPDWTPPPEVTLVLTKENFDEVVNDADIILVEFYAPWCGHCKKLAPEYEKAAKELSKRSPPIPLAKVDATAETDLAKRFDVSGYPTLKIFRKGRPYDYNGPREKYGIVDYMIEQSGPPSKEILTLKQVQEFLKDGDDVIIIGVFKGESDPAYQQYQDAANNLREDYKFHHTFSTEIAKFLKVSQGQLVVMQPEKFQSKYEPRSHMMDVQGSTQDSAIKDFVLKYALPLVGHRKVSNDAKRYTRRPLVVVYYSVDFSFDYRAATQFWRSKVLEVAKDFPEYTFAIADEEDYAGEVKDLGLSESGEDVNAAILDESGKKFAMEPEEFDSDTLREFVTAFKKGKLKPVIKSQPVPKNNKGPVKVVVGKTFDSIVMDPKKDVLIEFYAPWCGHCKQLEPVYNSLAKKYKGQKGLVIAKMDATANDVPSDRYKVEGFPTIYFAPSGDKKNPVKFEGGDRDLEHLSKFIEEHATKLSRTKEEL
# Description: as §1, §4
# [11] = test system: HEK293T cells; test: Proliferation assay, HEK293T; type: cell-based, human; conditions: 1–30 μM, 72 hr
# Description: as §9
# [12] = test system: haemostasis (bleeding time); test: Tail bleeding assay; type: in vivo, mouse; conditions: 20 μM circulating concentration, femoral vein, 5 min before tail biopsy, n = 10; vehicle 225 s ± 28 s; not significant
# Description: as §6, §7
# [13] = design: method as in Fischer et al., [2000]; conditions: oral 20 mg twice daily; ref Fischer et al., [2000]; cited from earlier work
# [14] = test system: MDA-MB-231 cells; test: Cell migration scratch assay, MDA-MB-231; type: cell-based, human; conditions: 20 μM, 37 hr
# Description: as §5
# Sequence of PDI (P07237 18-508, species assumed): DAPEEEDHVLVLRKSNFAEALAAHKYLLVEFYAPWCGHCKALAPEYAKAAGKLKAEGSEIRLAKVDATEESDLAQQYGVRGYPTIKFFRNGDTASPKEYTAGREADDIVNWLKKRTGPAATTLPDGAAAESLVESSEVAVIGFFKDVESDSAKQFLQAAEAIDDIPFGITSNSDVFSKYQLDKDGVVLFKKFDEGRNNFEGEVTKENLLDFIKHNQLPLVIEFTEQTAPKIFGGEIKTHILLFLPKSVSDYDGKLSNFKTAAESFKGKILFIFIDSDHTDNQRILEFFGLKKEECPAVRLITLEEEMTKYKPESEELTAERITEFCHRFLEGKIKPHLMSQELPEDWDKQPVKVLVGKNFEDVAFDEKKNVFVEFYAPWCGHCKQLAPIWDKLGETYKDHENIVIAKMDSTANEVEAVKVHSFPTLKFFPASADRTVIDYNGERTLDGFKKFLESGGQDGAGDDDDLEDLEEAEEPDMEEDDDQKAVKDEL
compound,measurement,setting,value
CC(C)(O)c1ccccc1CC[C@@H](SCC1(CC(=O)O)CC1)c1cccc(/C=C/c2ccc3ccc(Cl)cc3n2)c1 [montelukast],Effect on enzyme activity of PDI,[1],almost entirely ablate
same,Effect on enzyme activity of ERp57,[2],almost entirely ablate
same,Effect on enzyme activity of thioredoxin,[3],almost entirely ablate
COc1cc(C(=O)NS(=O)(=O)c2ccccc2C)ccc1Cc1cn(C)c2ccc(NC(=O)OC3CCCC3)cc12 [zafirlukast],"Inhibition of ERp5 activity, concentration dependence",[4],concentration dependently inhibits
same,Closure area at endpoint,"[5]; vehicle 80,686 [±15,705]","1,475,154 [±81,061]"
same,Scratch area coverage (migration) at endpoint,[5]; vehicle over 96%,32%
same,Thrombus size (maximum fluorescence intensity),[6],significantly impaired
same,Effect on enzyme activity of PDI,[1],almost entirely ablate
same,"Inhibition of PDI activity, concentration dependence","[1]; PDI 10 μg·ml^−1, 650 nm, 37°C",concentration dependently inhibits
same,Reduction of surface free thiol (MPB) labelling,[7],42%
same,Effect on cell proliferation,[8]; 20 μM,minimal effect
same,Reduction of proliferation,[8]; 30 μM,around 20%
same,Decrease of surface MPB labelling,[9],47%
same,Effect on enzyme activity of ERp57,[2],almost entirely ablate
same,"Inhibition of ERp57 activity, concentration dependence","[2]; ERp57 10 μg·ml^−1, 650 nm, 37°C",concentration dependently inhibits
same,"Inhibition of ERp72 activity, concentration dependence",[10],concentration dependently inhibits
same,Impairment of cell proliferation,[11],not detected
same,Bleeding time,[12],243 s
same,Peak plasma concentration (cMax),[13],697 ng/mL
same,"Peak plasma concentration, equivalent",[13],1.2 µM
same,Time of peak plasma concentration,[13],3 h
same,Closure area at endpoint,"[14]; vehicle 62,163 ± 23,552","243,707 ± 51,057"
same,Scratch area covered at endpoint,[14]; vehicle over 86%,56%
same,Effect on enzyme activity of thioredoxin,[3],almost entirely ablate
same,"Inhibition of thioredoxin (TRX) activity, concentration dependence","[3]; TRX 10 μg·ml^−1, 650 nm, 37°C",concentration dependently inhibits
